Patent US8318217B2, “Compositions comprising an anti-inflammatory blend” (Johnson & Johnson Consumer Companies, Inc., priority 2009, dated 2012)
In brackets after ≈: the same amount, converted by molar mass. Where two headings read alike, the source gives them in different places.

What was measured:
NFκB = assay: NFκB-INHIBITION TEST (NF-κB gene reporter, TNFα-stimulated FB293 cells); format: cell-based, human; conditions: for NF-κB Gene Reporter Activation (Luminescence, L): 24 h; for NF-κB inhibition (in words): summary of Table 1; for NF-KB Activity (10 ug/ml): Tables 3a and 3b
Description: As used herein, “NFκB-inhibitor” means a compound that inhibits the cell transcription factor nuclear kappa-B (NFκB). […] The compound need not provide the recited Percent NFκB Inhibition at all concentrations from 1 microgram per milliliter to 100 micrograms per milliliter, but provides the recited Percent NFκB Inhibition at least one concentration in this range.
The NFκB-INHIBITION TEST is conducted in the following manner. FB293 cells, a stable transfected human epithelial cell line containing the gene reporter for NF-κB are used. They may be obtained from, e.g., Panomics (Fremont, Calif.). FB293 are plated at a density of 5×10^4 cells/mL in a suitable medium, e.g., Dulbecco's modified Eagle's medium (DMEM) supplemented with 10% fetal bovine serum (Invitrogen, San Diego, Calif.). The FB293 cells are stimulated with 100 ng/mL of Tumor Necrosis Factor-α (TNFα, available from Sigma-Aldrich of St Louis, Mo.) in the presence of the test sample. Separately, a control sample is tested wherein no test sample is applied. Following a 24-hour incubation at 37° C. with 5% CO2, cells are lysed with 40 μl of reporter lysis buffer (Promega, Madison, Wis.). A 20-μl aliquot of the lysate is assayed using a luciferase assay kit (Promega) and counted for 10 s in a Lmax luminometer (Molecular Devices, Sunnyvale, Calif.) with the data represented as the relative light unit/second. Percent NFκB Inhibition of the test sample is calculated as: NFκB Inhibition=[1−(Lsample/Lcontrol)]*100 where Lsample is the luminescence of the sample and Lcontrol is the luminescence of the control.
The NFκB-INHIBITION TEST described above was performed on test samples of Bay 11-7082 (Sigma-Aldrich, St. Louis, Mo.), Tetrahydrocurcuminoids CG (Sabinsa Corporation, Piscataway, N.J.), as well as various concentrations of 4-hexylresorcinol.
The NFκB-INHIBITION TEST described above was performed on a series of substituted resorcinols each having a concentration of 10 μg/ml.

IL-1α = IL-1α ASSAY (IL-1α cytokine release in KB cells); format: cell-based, human; conditions: for Increase in IL-1α over untreated control (normalized): normalized to 4-hexylresorcinol 20 μg/mL
Description: An IL-1α ASSAY was performed on a plurality of agents to investigate the release of the pro-inflammatory mediator, IL-1α cytokine, in human epithelial cells.
(§1) The IL-1α ASSAY was conducted as follows. KB cells were obtained from ATCC (ATCC#CCL-17, Manassas, Va.) and were plated in 96-well tissue culture treated plates at a density of 5000 cells/well in Dulbecco's modified Eagle's medium (DMEM) supplemented with 10% fetal bovine serum (Invitrogen Corp., San Diego, Calif.). After 48 hours, cells were treated with the agents described below at indicated concentrations for 24 hours, following which supernatants were collected and analyzed for IL-1α cytokine release using commercially available kits (Millipore Corp., Billerica, Mass.).
Further IL-1α ASSAYS as described in Example 5 were performed. For ease of comparison, reported increases in IL-1α for 4-hexylresorcinol, phloretin, and combinations thereof were normalized to 4-hexylresorcinol (20 μg/mL, Comparative Example 2). Reported increases in IL-1α for tetrahydrocurcuminoids, feverfew, and combinations thereof were normalized to tetrahydrocurcuminoids (20 μg/mL, Comparative Example 3).
Further IL-1α ASSAYS as described in Example 5 were performed. For ease of comparison, reported increases in IL-1α were normalized to 4-hexylresorcinol (20 μg/mL, Comparative Example 2).

IL-8 = IL-8 ASSAY (IL-8 cytokine release in KB cells); format: cell-based, human
Description: as §1
An IL-8 ASSAY was performed on a series of compositions using the method described in Example 5, except that the cytokine analyzed for was IL-8. Percent reduction in IL-8 was calculated for each sample. For samples containing a combination of an NF-κB inhibitor and an anti-inflammatory compound, the percent reduction in IL-8 relative to the percent reduction in IL-8 for the corresponding dose of anti-inflammatory compound is reported.

Interleukin-2 = assay: ANTI-INFLAMMATORY ASSAY (cytokine production by PHA-stimulated human lymphocytes); format: cell-based; conditions: PHA 10 μg/mL stimulated human leukocytes, 48 h
Description: The ANTI-INFLAMMATORY ASSAY assesses the ability of an agent to reduce the production of cytokines by human lymphocytes stimulated with the T-cell receptor (TCR) activating agent phytohaemagglutinin (PHA), and is conducted in the following manner. Human leukocytes are collected from a healthy adult […] via leukopheresis, and adjusted to a density of 1×10^6 cells/mL in serum free lymphocyte growth medium (ExVivo-15, Biowhittaker, Walkersville, Md.). PBLs are stimulated with 10 μg/mL PHA in the presence or absence of test samples following published methods (Hamamoto Y., et al. Exp Dermatol 2:231-235, 1993). Following a 48-hour incubation at 37° C. with 5% CO2, the supernatant is removed and evaluated for cytokine content using commercially available multiplex cytokine detection kit.

[1] = Homo sapiens, 10 μg/ml, series of substituted resorcinols, Table 2, read-out: Percent NF-κB Inhibition
[2] = Homo sapiens, read-out: Percent NF-κB Inhibition
[3] = Homo sapiens, read-out: Percent NFκB Inhibition

COc1cccc(OC)c1 [1,3-Dimethoxybenzene, reference compound]
inhibition at 10 µg/mL (NFκB; [1]): -1.7%

O=C(O)/C=C/c1ccc(O)cc1O [2,4-DIHYDROXYCINNAMIC Acid]
inhibition at 10 µg/mL (NFκB; [1]): -1.7%

O=Nc1ccc(O)c(N=O)c1O [2,4-Dinitrosorcinol]
inhibition at 10 µg/mL (NFκB; [2]): 51.8%

CCC(=O)c1ccc(O)cc1O [2′,4′-Dihydroxypropiophenone]
inhibition at 10 µg/mL (NFκB; [1]): -0.7%

COc1cccc(O)c1 [3-Methoxyphenol, reference compound]
inhibition at 10 µg/mL (NFκB; [1]): 0%

CCCCCC(=O)c1ccc(O)cc1O [4-Caproylresorcinol]
inhibition at 10 µg/mL (NFκB; [1]): 10.2%

Oc1ccc(Cl)c(O)c1 [4-Chloroesorcinol]
inhibition at 10 µg/mL (NFκB; [1]): 51.6%

CCCCCCCCCCCCc1ccc(O)cc1O [4-Dodecylresorcinol]
inhibition at 10 µg/mL (NFκB; [1]): 20.9%

CCCCCCc1ccc(O)cc1O [4-Hexylresorcinol]
NF-κB Gene Reporter Activation (Luminescence, L) (NFκB; 1 μg/ml, TNFα 100 ng/ml stimulated FB293 cells): 106.1 ± 1.9 | NF-κB Gene Reporter Activation (Luminescence, L) (NFκB; 5 μg/ml, TNFα 100 ng/ml stimulated FB293 cells): 55.1 ± 1.7 | NF-κB Gene Reporter Activation (Luminescence, L) (NFκB; 10 μg/ml, TNFα 100 ng/ml stimulated FB293 cells): 29.3 ± 9.2 | NF-κB Gene Reporter Activation (Luminescence, L) (NFκB; 50 μg/ml, TNFα 100 ng/ml stimulated FB293 cells, relative light unit/second per method): 9.3 ± 0.9 | inhibition at 10 µg/mL (NFκB; [2]): 92.4% | inhibition at 1 µg/mL (NFκB; [3]): 1.9% | inhibition at 5 µg/mL (NFκB; [3]): 50.9% | inhibition at 10 µg/mL (NFκB; [3]): 72.9% | inhibition at 50 µg/mL (NFκB; [3]): 91.4% | NF-κB inhibition (in words) (NFκB): substantial reduction in NFκB activation | Mean of IL-1α Release (IL-1α; 20 μg/mL, 24 h, KB cells, untreated 0.72): 21.34 pg/mL | Increase in IL-1α over untreated control (normalized) (IL-1α; single agent 20 μg/mL, Table 6): 100 | Increase in IL-1α over untreated control (normalized) (IL-1α; single agent 20 μg/mL, Table 7): 100 | release of cytokine IL-1α (in words) (IL-1α; summary of Table 5): can increase the release of cytokine IL-1α | Mean of IL-8 Release (IL-8; single agent 10 μg/mL, untreated 84.46, Table 9): 73.23 pg/mL | Mean of IL-8 Release (IL-8; single agent 20 μg/mL, untreated 46.05, Table 8): 14.58 pg/mL | Mean of IL-8 Release (IL-8; single agent 20 μg/mL, untreated 84.46, Table 9): 27.05 pg/mL

CCCCCCCCc1ccc(O)cc1O [4-Octylresorcinol]
inhibition at 10 µg/mL (NFκB; [1]): 99.5%

Cc1ccc(S(=O)(=O)/C=C/C#N)cc1 [Bay 11-7082, (E)-3-(4-methylphenylsulfonyl)-2-propenenitrile, reference compound]
NF-κB Gene Reporter Activation (Luminescence, L) (NFκB; 25 uM, FB293 cells): 11.3 ± 5.6 | inhibition at 25 µM (NFκB; Homo sapiens, 25 uM, Table 1, read-out: Percent NFκB Inhibition): 89.5% | NF-κB inhibition (in words) (NFκB): strong NF-κB inhibition

CCCCCCCCCCCC1c2cc(c(O)cc2O)C(CCCCCCCCCCC)c2cc(c(O)cc2O)C(CCCCCCCCCCC)c2cc(c(O)cc2O)C(CCCCCCCCCCC)c2cc1c(O)cc2O (stereo not shown) [C-Undecylcalix[4]-resorcinarene]
Percent NF-κB Inhibition (NFκB; 10 μg/ml, series of substituted resorcinols, Table 2): 4.87%

C=CC(C)(C)c1cc(/C=C/C(=O)c2ccc(O)cc2)c(OC)cc1O [Licochalcone]
NF-KB Activity (10 ug/ml) (NFκB): 0% | Anti-Inflammatory Activity (IC50 ug/ml) (Interleukin-2): 54.1 µg/mL

Oc1ccc(CCc2ccccc2)c(O)c1 [Phenethylresorinol]
inhibition at 10 µg/mL (NFκB; [1]): 31.8%

O=C(CCc1ccc(O)cc1)c1c(O)cc(O)cc1O [Phloretin]
NF-KB Activity (10 ug/ml) (NFκB): 0% | IC50 (Interleukin-2; Leukocyte, read-out: Anti-Inflammatory Activity (IC50 ug/ml)): 19.9 µg/mL (≈ 72.6 µM) | Increase in IL-1α over untreated control (normalized) (IL-1α; single agent 10 μg/mL, Table 6): 3.82 | Increase in IL-1α over untreated control (normalized) (IL-1α; single agent 50 μg/mL, Table 6): 2.39 | Increase in IL-1α over untreated control (normalized) (IL-1α; single agent 100 μg/mL, Table 6): 3.34

CC1CCCC(=O)CCCCCc2cc(O)cc(O)c2C(=O)O1 (stereo not shown) [Zearalanone]
inhibition at 10 µg/mL (NFκB; [2]): 51%

CC1CCCC(O)CCCCCc2cc(O)cc(O)c2C(=O)O1 (stereo not drawn) [β-Zearalanol]
inhibition at 10 µg/mL (NFκB; [2]): 76.6%

C[C@H]1CCC[C@@H](O)CCC/C=C/c2cc(O)cc(O)c2C(=O)O1 [β-Zearalenol]
inhibition at 10 µg/mL (NFκB; [2]): 87.1%

Madecassoside [reference compound]
NF-KB Activity (10 ug/ml) (NFκB): 0% | Anti-Inflammatory Activity (IC50 ug/ml) (Interleukin-2): 77.3 µg/mL | Increase in IL-1α over untreated control (normalized) (IL-1α; single agent 10 μg/mL, Table 7): 43.02 | Increase in IL-1α over untreated control (normalized) (IL-1α; single agent 50 μg/mL, Table 7): 41.59 | Increase in IL-1α over untreated control (normalized) (IL-1α; single agent 100 μg/mL, Table 7): 44.24
